Reference: ChEMBL document CHEMBL3988442, “University of Dundee, Small-Polar-MMV Screening Library” (2021)

target: Sialic acid-binding Ig-like lectin 9 (Homo sapiens, UniProt Q9Y336); test: Hs-Siglec9 ALPHAscreen SOP 20170721
Sequence (Q9Y336 whole entry): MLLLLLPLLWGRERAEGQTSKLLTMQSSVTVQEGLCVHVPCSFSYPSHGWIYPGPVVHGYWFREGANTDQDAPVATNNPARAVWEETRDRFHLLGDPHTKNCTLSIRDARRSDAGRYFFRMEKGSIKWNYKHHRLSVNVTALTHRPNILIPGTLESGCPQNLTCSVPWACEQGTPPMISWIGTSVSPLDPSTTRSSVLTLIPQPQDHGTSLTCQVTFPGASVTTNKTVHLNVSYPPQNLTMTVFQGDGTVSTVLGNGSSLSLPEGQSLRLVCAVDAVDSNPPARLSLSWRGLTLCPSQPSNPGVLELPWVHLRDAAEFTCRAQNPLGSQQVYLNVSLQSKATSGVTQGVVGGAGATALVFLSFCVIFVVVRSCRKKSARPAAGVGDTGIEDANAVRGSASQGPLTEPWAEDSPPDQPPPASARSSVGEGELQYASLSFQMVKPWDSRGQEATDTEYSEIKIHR

SMILES | IC50 [µM]
Cc1ccsc1CN1C[C@@H]2COC[C@]2(COCC(=O)N(C)C)C1 | > 30.2
O=C(NCCc1nncn1C1CC1)C1SCCc2ccccc21 (configuration not stated) | > 30.2
COCCNC(=O)c1nnn(Cc2ccccc2)c1OC | > 30.2
c1csc(CN2Cc3nccn3CC(Cn3cncn3)C2)n1 (configuration not stated) | > 30.2
c1cnc(N2CCC3(CCN(CC4CCOCC4)CC3)C2)nc1 | > 30.2
NC(=O)c1csc(N2C[C@@H](CN3CCCCC3)[C@@H](CO)C2)n1 | > 30.2
CCn1ncc2c1C(COC)CN(Cc1ccc(F)cc1)C2 (configuration not stated) | > 30.2
O=C(C1CCOCC1)N1CCO[C@H]2[C@H](Oc3ccccn3)CC[C@@H]21 | > 30.2
CC(C)CC1(C(=O)NCCc2nncn2C2CC2)CCC1 | > 30.2
O=C(C1CCN(c2nc3nc[nH]c(=O)c3s2)CC1)N1CCCCC1 | > 30.2
CC(C)c1cc(C(=O)N2CCCC(c3cc(=O)nc4n3CCC4)C2)no1 (configuration not stated) | > 30.2
Cc1cc(C(=O)N2CCNC(=O)CC2)c(C)n1CC(F)(F)F | > 30.2
CC(=O)NCCCSC1CCN(c2c(F)cccc2F)C1=O (configuration not stated) | > 30.2
CCOC(=O)[C@H]1[C@@H](O)C(=O)N(C)C12CCN(C(=O)CC1CCCC1)CC2 | > 30.2
Cc1cc(C(=O)N2CC[C@](C)(O)[C@H](C)C2)c(C)n1C | > 30.2
CNC(=O)C1CCN(c2nc3nc[nH]c(=O)c3s2)CC1 | > 30.2
Cc1cc(C(=O)N2CCO[C@H]3[C@H](Oc4ccccn4)CC[C@@H]32)c(C)[nH]1 | > 30.2
Cc1cc(C(=O)NC2CC(=O)N(C(C)C)C2=O)c(C)n1C(C)C (configuration not stated) | > 30.2
CC(C)n1cnnc1C1CCCN(C(=O)COCc2ccccc2)C1 (configuration not stated) | > 30.2
COCC(=O)N1CCC2(CC1)COc1ccccc1S(=O)(=O)N(C)C2 | > 30.2
CCOC(=O)[C@@H]1[C@@H](O)C(=O)N(C)C12CCN(C(=O)OC)CC2 | > 30.2
CCc1nc(C2CCCN(c3ncccn3)C2)no1 (configuration not stated) | > 30.2
CCN(C(=O)c1cc(C)oc1C)C1CC1 | > 30.2
Cc1nn(C)c(C)c1CCC(=O)NCc1csc(N2CCCC2)n1 | > 30.2
COc1cc(C)sc1C(=O)N1CC(c2cccnc2)C1 | > 30.2

SMILES | IC50 [µM]
CCc1cc(N2CCC(N3CCSCC3)CC2)n2nccc2n1 | > 30.2
Cc1ccnc(NC(=O)c2cc(C)oc2C)c1 | > 30.2
CC(=O)NCC(=O)N1Cc2cc(C#N)ccc2C1c1cnco1 (configuration not stated) | > 30.2
CCOC(=O)CNC(=O)c1cccnc1Oc1ccc(Cl)cc1 | > 30.2
O=C(NCC1(O)CCC1)c1cccc(-n2cccn2)c1 | > 30.2
Cc1occc1C(=O)N1CCCS1(=O)=O | > 30.2
c1cc2occc2c(N2CCCC(c3nncn3C3CC3)C2)n1 (configuration not stated) | > 30.2
COc1ccc(C(C)NCc2cscn2)cc1Cn1cccn1 (configuration not stated) | > 30.2
c1ccc([C@@H]2CN(Cc3cccnc3)C[C@H]2c2cc[nH]n2)cc1 | > 30.2
COC(=O)C(O)C1CCN(CCc2ccncc2)CC1 (configuration not stated) | > 30.2
O=C1Nc2ccccc2CNC12CCN(CC1CCNC1)CC2 (configuration not stated) | > 30.2
CCNC(=O)c1cc2n(n1)CCCO2 | > 30.2
O=C(NCc1nc2ccccc2[nH]1)c1cc2n(n1)CCCO2 | > 30.2
CC(C)n1cnnc1C1CCCN(S(=O)(=O)c2c[nH]cn2)C1 (configuration not stated) | > 30.2
CCn1ncc2c1C(COC)CN(Cc1ccc(OC)cc1)C2 (configuration not stated) | > 30.2
CCC(=O)N1CCC2(CC1)COc1ccccc1S(=O)(=O)N(C)C2 | > 30.2
COC(=O)C(O)C1CCN(Cc2cccc(-n3cccn3)c2)CC1 (configuration not stated) | > 30.2
CCc1cc(N2CCN3CCCCC3C2)n2nccc2n1 (configuration not stated) | > 30.2
CC(C)CCS(=O)(=O)N1CCCC(c2nncn2C(C)C)C1 (configuration not stated) | > 30.2
CCc1nc(C2CCCN2c2ncc(Br)cn2)no1 (configuration not stated) | > 30.2
CN(C)C(=O)CN1CCC2(CC1)COc1ccccc1S(=O)(=O)N(C)C2 | > 30.2
Cc1occc1C(=O)N1CCOC2(CCCC2)C1 | > 30.2
COc1ccc(C(C)NCc2ccnn2C)cc1Cn1cccn1 (configuration not stated) | > 30.2
COCCN1CCC2(CC1)COc1ccccc1S(=O)(=O)N(C)C2 | > 30.2
COc1ccc(C(C)NCc2cccs2)cc1Cn1cccn1 (configuration not stated) | > 30.2

SMILES | IC50 [µM]
COC(=O)CC1CCN(C(=O)c2ccc(-n3nnnc3C)cc2)CC1 | > 30.2
COCCN(CCOC)C(=O)c1ccoc1C | > 30.2
NC(=O)c1csc(N2C[C@@H](CN3CCC(O)CC3)[C@@H](CO)C2)n1 | > 30.2
c1cnc(N2CCC3(CCN(CC4CCOC4)CC3)C2)nc1 (configuration not stated) | > 30.2
Cc1occc1C(=O)N1CCO[C@H]2[C@H](OCc3ccccn3)CC[C@@H]21 | > 30.2
Cc1nc(C2CCCN(c3ncc(Br)cn3)C2)no1 (configuration not stated) | > 30.2
O=C(NCCc1nncn1C1CC1)C1(c2ccccc2)CCC1 | > 30.2
CCOC(=O)[C@@H]1[C@@H](O)C(=O)N(C)C12CCN(C(=O)c1ccco1)CC2 | > 30.2
CCOC(=O)[C@H]1[C@@H](O)C(=O)N(C)C12CCN(C(=O)c1ccccc1)CC2 | > 30.2
CC(=O)NCCCSC1CCN(c2ccccc2F)C1=O (configuration not stated) | > 30.2
CCOC(=O)Cc1csc(NC(=O)c2cc3n(n2)CCCO3)n1 | > 30.2
c1ccc([C@@H]2CN(Cc3ccncc3)C[C@H]2c2cc[nH]n2)cc1 | > 30.2
COc1ccc([C@@H]2CN(Cc3ccncc3)C[C@H]2c2cc[nH]n2)cc1 | > 30.2
O=C1Nc2ccccc2CNC12CCN(CC1CC1)CC2 | > 30.2
Cc1nccc(N2C[C@@H](CN3CCCC3)[C@@H](CO)C2)n1 | > 30.2
CCn1ncc2c1C(COC)CN(Cc1ccco1)C2 (configuration not stated) | > 30.2
Cc1occc1C(=O)N1C[C@H](Oc2ccccn2)[C@H]2OCCC[C@H]21 | > 30.2
Cc1cccc(CN2C[C@@H]3COC[C@]3(COCC(=O)N(C)C)C2)n1 | > 30.2
CN1Cc2ccccc2NC(=O)C12CCNC2 (configuration not stated) | > 30.2
CCc1cc(N2CC(N3CCCCC3C)C2)n2nccc2n1 (configuration not stated) | > 30.2
FC(F)(F)c1cc(C2CCCN(c3ncccn3)C2)n2ccnc2n1 (configuration not stated) | > 30.2
Cc1nc(COC[C@]23COC[C@H]2CN(Cc2ccoc2)C3)cs1 | > 30.2
COC(=O)C(O)C1CCN(CCc2ccccn2)CC1 (configuration not stated) | > 30.2
CCN1CC2(CCN(C(=O)N(C)C)CC2)COc2ccccc2S1(=O)=O | > 30.2
CS(=O)(=O)N1Cc2ccnn2CC(C(=O)NCc2cccnc2)C1 (configuration not stated) | > 30.2

SMILES | IC50 [µM]
c1cnc(N2CCCC3(CCN(CC4CCOC4)CC3)C2)nc1 (configuration not stated) | > 30.2
Cc1occc1C(=O)N1CCO[C@H]2[C@@H](Oc3ccccn3)CC[C@@H]21 | > 30.2
c1cnc(N2CCC3(CCCN(CC4CC4)C3)CC2)nc1 | > 30.2
CN(C)C(=O)COC[C@]12COC[C@H]1CN(Cc1ccoc1)C2 | > 30.2
CC(C)n1cnnc1C1CCCN(S(=O)(=O)CCCF)C1 (configuration not stated) | > 30.2
CCOC(=O)[C@H]1[C@@H](O)C(=O)N(C)C12CCN(S(=O)(=O)CC)CC2 | > 30.2
Cc1csc(CN2C[C@@H]3COC[C@]3(COCC(=O)N(C)C)C2)n1 | > 30.2
N#Cc1ccc2c(c1)CN(C(=O)C1CC=CC1)C2c1cnco1 (configuration not stated) | > 30.2
Cc1cc(N2CCCC(c3nncn3C3CC3)C2)ncn1 (configuration not stated) | > 30.2
CCCN1Cc2ccccc2NC(=O)C12CCNC2 (configuration not stated) | > 30.2
CCn1c(C)cc(C(=O)N2CCC(NC(=O)c3ccc(C)o3)CC2)c1C | > 30.2
CSc1nccc(N2C[C@@H](CN3CCCCC3)[C@@H](CO)C2)n1 | > 30.2
O=C(NC1CC1)C1CCN(c2nc3nc[nH]c(=O)c3s2)CC1 | > 30.2
Cc1cc(CNC(=O)c2cnoc2C)c(C)o1 | > 30.2
Cc1oc(C)c(C(=O)NCc2cccnc2)c1C | > 30.2
Nc1nccc(N2C[C@@H](CN3CCCCC3)[C@@H](CO)C2)n1 | > 30.2
Cc1cc(C(=O)N2CCC(Nc3cccnc3)CC2)c(C)s1 | > 30.2
CN(C)C(=O)COC[C@]12COC[C@H]1CN(Cc1ccco1)C2 | > 30.2
Cc1cncc(C(=O)N2CCO[C@H]3[C@H](Oc4ccccn4)CC[C@@H]32)c1 | > 30.2
CC(C)CCNc1nc(C(=O)NC2CC2)cs1 | > 30.2
CCn1ncnc1C1CC(=O)NCc2nc(N3CCCC3)sc21 (configuration not stated) | > 30.2
CCC(C(=O)NCc1csc(N2CCOCC2)n1)n1cccn1 (configuration not stated) | > 30.2
CN(C)C(=O)COC[C@]12COC[C@H]1CN(CC1CCC1)C2 | > 30.2
CN(C)C(=O)COC[C@]12COC[C@H]1CN(Cc1ccccc1)C2 | > 30.2
CN1CC2(CCN(CC3CC3)CC2)COc2ccccc2S1(=O)=O | > 30.2

SMILES | IC50 [µM]
COC(=O)CC1CCN(C(=O)c2ccccc2-n2nnnc2C)CC1 | > 30.2
CCn1ncnc1C1CC(=O)NCc2nc(N3CCOCC3)sc21 (configuration not stated) | > 30.2
O=C1Nc2ccccc2CNC12CCN(CC1CCCC1)CC2 | > 30.2
FC(F)(F)CCc1ccnc(NCc2csc(N3CCOCC3)n2)n1 | > 30.2
O=C(NCCc1nncn1C1CC1)c1cnn(Cc2ccccc2)c1 | > 30.2
CC(=O)N[C@@H]1CN(c2nc(C(N)=O)cs2)C[C@H]1c1ccc(C)o1 | > 30.2
CCS(=O)(=O)CCNC(=O)c1cc2n(n1)CCCO2 | > 30.2
Cc1ccnc(NC(=O)c2c(C)oc(C)c2C)c1 | > 30.2
CC(C)n1cnnc1CCNCc1cn(CCC(N)=O)c2ccccc12 | > 30.2
CCNC(=O)c1nnn(Cc2ccccc2)c1OC | > 30.2
Cc1nc(CC(=O)NCc2csc(N3CCCC3)n2)cs1 | > 30.2
CCn1cnnc1C1CCN(C(=O)c2cc(C)n(CC)c2C)CC1 | > 30.2
COc1ccc(OC)c(C(=O)N2CCC(Nc3cccnc3)CC2)c1 | > 30.2
Cc1occc1C(=O)N1CCO[C@H]2[C@H](Oc3cccnc3)CC[C@@H]21 | > 30.2
CCOC(=O)[C@H]1[C@@H](O)C(=O)N(C)C12CCN(C(=O)CC(C)(C)C)CC2 | > 30.2
COC(=O)CC1CCN(C(=O)c2ccc(C)cc2)CC1 | > 30.2
COc1c(C(=O)NCc2cccnc2)nnn1Cc1ccc(C)cc1 | > 30.2
Cc1ncsc1CCC(=O)NCc1csc(N2CCCC2)n1 | > 30.2
CCc1cc(C(=O)N2CCCC(c3cc(=O)nc4n3CCC4)C2)no1 (configuration not stated) | > 30.2
Cc1nc(CN2C[C@@H]3COC[C@]3(COCC(=O)N(C)C)C2)cs1 | > 30.2
CCc1nc(C2CCCN(c3nccc(C)n3)C2)no1 (configuration not stated) | > 30.2
CCOC(=O)[C@H]1[C@@H](O)C(=O)N(C)C12CCN(C(=O)C(CC)CC)CC2 | > 30.2
